Assay results as given in patent US8367060B2, “Pharmaceutical composition containing arazyme for the prevention of liver dysfunction” (Insect Biotech Co., Ltd., priority 2006, dated 2013).
“Also recorded” adds a separate entry of the source.

How the values were obtained:
[1] = tested on: P-smad3; assay: Expression of P-smad3 in liver cells by immunoblotting; type: in vivo; conditions: SMP30 knock-out mice; compared with CCl4 alone (G6)
Protocol: (§1) Wild type mice and SMP30 knock-out mice were divided, by 5 of each, into negative control groups (G1, G5), positive control groups (G2, G6), two of experimental group 1 (G3, G7) and two of experimental group 2 (G4, G8) (Table 1). Intraperitoneal administration of olive oil was performed once to negative control mice (G1, G5), while intraperitoneal administration of CCl4 (0.4 ml/kg) was performed once to positive control mice (G2, G6). In the meantime, 100 mg/kg of vitamin C dissolved in tap water was orally administered to experimental group 1 mice (G3, G7) one day before the intraperitoneal administration of CCl4 (0.4 ml/kg). 100 mg/kg of arazyme dissolved in tap water was orally administered to experimental group 2 mice (G4, G8) one day before the intraperitoneal administration of CCl4 (0.4 ml/kg). 24 hours after the administration of CCl4, autopsy was performed in every mouse and samples were taken from each mouse for histopathological test.
(§2) The expression of SMP30 in liver cells was investigated by immunoblotting. First, the liver tissues frozen at −70° C. were homogenized in RIPA buffer containing 0.1 mM sodium orthovandate (Na3VO4) and protease inhibitor cocktail tablet (Roche, Mannheim, Germany). […] Protein concentration was measured by Bradford method and each protein sample proceeded onto 10% SDS-polyacrylamide gel at the concentration of 80 µg/well, followed by electrophoresis. […]

[2] = tested on: SMP30; assay: Immunohistochemical observation of SMP30 in liver cells; type: in vivo; conditions: wild type mice, 100 mg/kg oral before CCl4, compared with CCl4 alone
Protocol: as §1
To observe SMP30 in liver cells immunohistochemically, paraffin embedded tissues fixed with formalin were cut into 4 μm thick sections, followed by deparaffinization. To inhibit the activity of endogenous peroxidase, the sections were treated in 3% H2O2 for 30 minutes and washed with 0.01 M PBS. To increase antigen expression of the tissues, the sections were treated with 0.01 M citrate buffer, followed by heat treatment using microwave. […]

[3] = tested on: P-smad3; assay: Immunohistochemical observation of P-smad3 expression in liver cells; type: in vivo, mice; conditions: 100 mg/kg oral before CCl4
[4] = tested on: liver cells; assay: Histopathological observation on liver cells (H&E) in CCl4-induced acute liver injury; type: in vivo, mice; conditions: for necrosis in liver cells: 100 mg/kg oral one day before CCl4 0.4 ml/kg i.p., autopsy 24 hours after CCl4
Excerpt: In the present invention, male wild type C57BL/6(WT) at 12 weeks and SMP30 knock-out C57BL/6(KO) mice were used to induce liver injury by CCl4 and then the relation of SMP30 with arazyme was investigated. 10 male and 20 female SMP30 knock-out C57BL/6 mice were distributed from Tokyo Metropolitan Institute of Gerontology, which were then raised in the animal laboratory at Department of Pathology, College of Veterinary Medicine, Kyungpook National University, Korea. Among F1 mice generated by breeding, knock-out mice were selected by tail DNA genotyping by PCR.
Wild type mice were quarantined and adapted for 7 days in the animal laboratory. During the adaptation, every symptom was checked and only healthy animals were selected. Both wild type and SMP30 knock-out mice were 12 weeks old, excluding the difference in age.
Rats were adapted and raised in an animal facility where temperature was regulated to 22±3° C., humidity was adjusted to 55±10% and light was also regulated to 12L/12D (08:00 lights on, 20:00 lights out). The environmental conditions were checked regularly (every three months). After environmental evaluation, no changes in important conditions were recognized. During the whole experiment period, rats were raised in polycarbonate cages [240 W×390 L×175 H (mm)] by up to 5 per cage. Skin mark using an oil magic pen and individual identification card were used for distinguishment. Feed for laboratory animals (PMI Nutrition International, 505 North 4th Street Richmond, in 47374, USA) was provided at any time after being sterilized by irradiation (13.2 kGy). Tap water was provided using a water bottle at any time after being purified by a carbon filter. Carbon tetrachloride was diluted in olive oil at the concentration of 0.4 ml/kg and administered to […] once to induce liver injury. 24 hours after the administration, autopsy was performed.
Wild type mice and SMP30 knock-out mice were divided, by 5 of each, into negative control groups (G1, G5), positive control groups (G2, G6), two of experimental group 1 (G3, G7) and two of experimental group 2 (G4, G8) (Table 1). […]

[5] = tested on: SMP30; assay: Expression of SMP30 in liver cells by immunoblotting; type: in vivo; conditions: wild type mice; 100 mg/kg oral before CCl4; compared with CCl4 only (G2)
Protocol: as §1, §2

## O=C1O[C@H]([C@@H](O)CO)C(O)=C1O [vitamin C, L-ascorbic acid, reference compound]
[1]
  P-smad3 expression (immunoblotting): inhibited
[2]
  SMP30 expression (immunohistochemistry): higher; also recorded: more strongly expressed
[3]; SMP30 knock-out mice, G6, G7 compared with G8
  P-smad3 immune response (immunohistochemistry): strongly detected
[3]; wild type mice, compared with CCl4 only (G2), 100 mg/kg
  P-smad3 immune response (immunohistochemistry): strong immune response against P-smad3 was detected in group 2 (G2) treated with CCl4 only, compared with the groups (G3, G4) treated with vitamin C and arazyme; also recorded: strongly observed in CCl4 treated group (G2), compared with the groups treated with vitamin C and arazyme (G3, G4)
[4]; SMP30 knock-out C57BL/6 mice
  necrosis in liver cells: significantly inhibited
[4]; wild type C57BL/6 mice
  necrosis in liver cells: significantly inhibited
[4]; wild type and SMP30 knock-out mice with acute liver injury
  apoptosis of liver cells, histological observation: inhibition of apoptosis of liver cells was observed
[5]
  SMP30 expression (immunoblotting): high
